Reference: paper PMC5371824, “Phosphatidylinositol (4,5)-bisphosphate dynamically regulates the K2P background K^+ channel TASK-2” (Scientific Reports, 2017)
pEC50: −log10 of the molar value.

Key:
TASK-2 = target: T1, TASK-2 (Mus musculus, UniProt F6V9U5); test: Excised inside-out patch recording from HEK-293 cells over-expressing TASK-2; type: biochemical
T1 construct: expressed in transfected cells; host or cells: HEK-293
T1 sequence (F6V9U5 1-502): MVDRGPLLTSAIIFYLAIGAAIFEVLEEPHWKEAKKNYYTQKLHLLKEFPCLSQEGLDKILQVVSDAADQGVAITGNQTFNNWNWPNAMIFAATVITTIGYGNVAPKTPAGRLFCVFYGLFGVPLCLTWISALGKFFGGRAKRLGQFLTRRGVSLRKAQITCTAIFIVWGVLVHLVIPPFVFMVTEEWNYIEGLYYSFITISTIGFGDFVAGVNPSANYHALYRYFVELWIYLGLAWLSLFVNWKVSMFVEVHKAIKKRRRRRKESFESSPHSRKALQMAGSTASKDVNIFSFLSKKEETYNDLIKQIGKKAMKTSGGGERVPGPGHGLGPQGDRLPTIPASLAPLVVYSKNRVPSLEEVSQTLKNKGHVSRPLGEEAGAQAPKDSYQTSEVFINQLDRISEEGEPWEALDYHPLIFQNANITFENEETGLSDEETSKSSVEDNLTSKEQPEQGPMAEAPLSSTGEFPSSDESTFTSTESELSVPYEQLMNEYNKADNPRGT
Method: HEK-293 cells were cultured in Dulbecco’s modified Eagle’s medium (DMEM) and F12 Ham’s medium at a 1:1 ratio and supplemented with 10% fetal calf serum at 37 °C in 5% CO2. For electrophysiological experiments, transient transfections were performed by electroporation, using CD8 cotransfection to identify effectively transfected cells. […] Experiments were performed 4–8 h after electroporation.
Recordings in the inside-out isolated patch configuration were performed in the gap-free mode at −60 mV. The inside aspect of the patch was bathed with a solution containing in mM: 10 KCl, 10 Glucose, 1 MgCl2, 10 EGTA, 1 Na3ATP, 0.1 GTP, 6.8 g/100 ml Sucrose, 10 Hepes/Tris, pH 7.4. The pipette contained in mM: 140 KCl, 10 Glucose, 6.8 g/100 ml Sucrose, 10 Hepes/Tris pH 7.4. For isolated patches, borosilicate capillaries (Harvard Apparatus GC150F-10 1.5 ODx0.86 ID) were fire polished to 4–5 MΩ and covered in beeswax. Acquisition was at 10 kHz with filter at 3 kHz (4-pole Bessel) and analysis was done with Clampfit 9.0 (Axon Instruments, Foster City, CA, USA). Traces shown are prints from crude Clampfit screen shots and quantification was done using the average currents were calculated at intervals using Clampfit after baseline adjustment.

KCNQ1/KCNE1 = test system: KCNQ1/KCNE1; design: method as in PMID 21576493; conditions: read-out: EC50 for PI(4,5)P2 effect; cited from earlier work

With CCCCCCCC(=O)OC[C@H](COP(=O)(O)O[C@@H]1[C@H](O)[C@H](O)[C@@H](OP(=O)(O)O)[C@H](OP(=O)(O)O)[C@H]1O)OC(=O)CCCCCCC [PI(4,5)P2, phosphatidylinositol 4,5-bisphosphate diC8] the “Effect of readmitted ATP relative to the maximal effect elicited by the PIP” value (TASK-2; 1 mM ATP added after PIP, inside-out patches, Fig. S3) was 1.7 fold, the “Stimulating effect on TASK-2-mediated currents after run-down” value (TASK-2; diC8 PIP added to inside-out excised patches, absence of ATP) was “Robust, but intermediate effects” and the “Maximal fold effect on TASK-2 current (normalised to current in absence of PIP)” value (TASK-2; diC8 PIP, inside-out patch, -60 mV, absence of ATP, from fits, means ± SEM) was 3.7 ± 0.2 fold. For the same molecule, the pEC50 (TASK-2; diC8 PIP, inside-out patch, -60 mV, absence of ATP, from fits, means ± SEM, read-out: K0.5 (EC50) for activation of TASK-2 current) was 4.46 and the pEC50 (KCNQ1/KCNE1) was 5.30.
